This passage reports IC50 results from US8865894B2, “Oxazolidin-2-one compounds and uses thereof” (Novartis AG, priority 2012, dated 2014).

pIC50: −log10 of the molar value.

The target of this assay is T1, human PI3Kδ (Homo sapiens, UniProt O00329).
T1 construct: made in house
T1 sequence (O00329 2-1044 limits assumed): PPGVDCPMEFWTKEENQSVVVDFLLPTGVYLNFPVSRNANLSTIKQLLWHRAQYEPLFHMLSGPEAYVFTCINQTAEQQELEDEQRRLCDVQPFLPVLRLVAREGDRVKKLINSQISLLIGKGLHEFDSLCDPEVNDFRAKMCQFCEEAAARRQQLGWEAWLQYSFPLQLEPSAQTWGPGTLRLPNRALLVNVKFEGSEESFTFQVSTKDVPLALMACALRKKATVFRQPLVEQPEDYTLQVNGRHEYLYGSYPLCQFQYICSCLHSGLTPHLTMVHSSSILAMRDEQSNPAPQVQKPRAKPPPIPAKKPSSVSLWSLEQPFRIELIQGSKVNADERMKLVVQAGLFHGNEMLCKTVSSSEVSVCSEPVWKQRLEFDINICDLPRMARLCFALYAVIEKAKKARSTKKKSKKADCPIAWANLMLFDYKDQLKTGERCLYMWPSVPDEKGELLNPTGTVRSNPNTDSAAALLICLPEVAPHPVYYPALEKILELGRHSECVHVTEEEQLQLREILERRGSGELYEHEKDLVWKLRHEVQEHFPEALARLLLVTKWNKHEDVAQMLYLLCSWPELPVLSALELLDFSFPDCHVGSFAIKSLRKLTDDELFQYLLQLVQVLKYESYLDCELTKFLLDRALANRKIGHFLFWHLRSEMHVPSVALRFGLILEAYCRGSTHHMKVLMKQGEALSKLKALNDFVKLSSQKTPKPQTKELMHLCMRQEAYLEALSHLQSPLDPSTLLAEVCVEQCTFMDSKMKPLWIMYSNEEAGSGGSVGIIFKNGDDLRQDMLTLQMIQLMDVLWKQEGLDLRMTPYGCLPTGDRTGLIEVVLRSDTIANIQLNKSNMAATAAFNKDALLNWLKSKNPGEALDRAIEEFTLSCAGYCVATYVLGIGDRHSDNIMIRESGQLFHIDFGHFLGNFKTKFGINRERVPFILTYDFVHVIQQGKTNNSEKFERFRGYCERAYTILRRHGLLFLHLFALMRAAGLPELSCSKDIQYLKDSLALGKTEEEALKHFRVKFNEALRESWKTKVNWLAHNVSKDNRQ
Briefly: Biochemical PI3Kdelta (TR-FRET Adapta Universal Kinase Assay). The note with it: mean of n measurements, read-out: PIK3d/ IC50. The protocol:
Test compounds were dissolved in DMSO (10 mM) and transferred into 1.4 mL flat bottom or V-shaped Matrix tubes carrying a unique 2D matrix chip by individual Novartis compound hubs. The numbers of these chips were distinctively linked to Novartis Pharma Numbers. The stock solutions were stored at −20° C. if not used immediately. For the test procedure the vials were defrosted and identified by a scanner whereby a working sheet was generated that guided the subsequent working steps.
Compounds were either manually diluted in DMSO for individual experiments (96 wells enabling 10 cpds at 8 (single points) concentrations) as described in or prepared as described below if tested for profiling in 384-wells. This format enabled the assay of maximally 40 individual test compounds at 8 concentrations (single points) including 4 reference compounds. The dilution protocol included the production of “pre-dilution plates”, “master plates” and “assay plates”.
96 polypropylene well plates were used as pre-dilution plates. A total of 4 pre-dilution plates were prepared including 10 test compounds each on the plate positions A1-A10, one standard compound at A11 and one DMSO control at A12. Programs have been written to run these pipetting steps on the HamiltonSTAR robots.
Identical “assay plates” were then prepared by pipetting 50 nL each of compound dilutions of the “master plates” into 384-well “assay plates”. The compounds were mixed with 4.5 μL of assays components plus 4.5 μL enzyme corresponding to a 1:181 dilution enabling the final concentration of 10, 3.0, 1.0, 0.3, 0.1, 0.03, 0.01 and 0.003 μM, respectively. The preparation of the “master plates” was handled by the Matrix PlateMate Plus robot and replication of “assay plates” by the HummingBird robot.
Catalytically active human PI3Kα, PI3Kβ, PI3Kδ, and mTOR were cloned, expressed and purified as described (Maira S M, Stauffer F, Brueggen J, Furet P, Schnell C, Fritsch C, Brachmann S, Chène P, de Pover A, Schoemaker K, Fabbro D, Gabriel D, Simonen M, Murphy L, Finan P, Sellers W, García-Echeverría C (2008), Mol Cancer Ther. 7:1851-63 and Maira S M, Pecchi S, Brueggen J, Huh K, Schnell C, Fritsch C, Nagel T, Wiesmann M, Brachmann S, Dorsch M, Chène P, Schoemaker K, De Pover A, Menezes D, Fabbro D, Sellers W, García-Echeverría C, Voliva C F (2011), Mol. Cancer Ther. accepted).
The TR-FRET Adapta™ Universal Kinase Assay Kit was purchased from Invitrogen Corporation (Carlsbad/CA, USA) (Cat. No. PV5099). The kit contains the following reagents: Adapta Eu-anti-ADP Antibody (Europium labeled anti-ADP antibody in HEPES buffered saline, Cat. No. PV5097), Alexa Fluor® 647-labeled ADP tracer (Alexa Fluor® 647-labeled ADP tracer in HEPES buffered saline, Cat. No. PV5098), proprietary TR-FRET dilution buffer pH 7.5 (Cat. No. PV3574).
PIK3CD substrate Phosphatidylinositol was obtained from Invitrogen (vesicules consisting of 2 mM PI in 50 mM HEPES pH7.5; Cat. No. PV5371). PIK3CG substrate Phosphatidylinositol-4,5-bisphosphate (PIP(4,5)2 was obtained from Invitrogen (PIP2:PS large unilamellar vesicules consisting of 1 mM PIP2: 19 mM PS in 50 mM HEPES pH7.5, 3 mM MgCl2, 1 mM EGTA; Cat. No. PV5100).
Time-Resolved Fluorescence Resonance Energy Transfer (TR-FRET) is a technology based on energy transfer between two adjacent dyes, from an excited electron in one dye (the donor) to an electron of an adjacent dye (the acceptor) through resonance, then released as a photon. This energy transfer is detected by an increase in the fluorescence emission of the acceptor, and a decrease in the fluorescence emission of the donor. TR-FRET assays for protein kinases use a long-lifetime lanthanide Terbium or Europium chelates as the donor species which overcome interference from compound autofluorescence or light scatter from precipitated compounds, by introducing a delay after excitation by a flashlamp excitation source. Results are often expressed as a ratio of the intensities of the acceptor and donor fluorophores.

As to `C[C@H]1CN(c2cc(-c3cnc(N)nc3C(F)(F)F)nc(N3CCOCC3)n2)C(=O)O1` [Example 16, (S)-3-(2′-Amino-2-morpholin-4-yl-4′-trifluoromethyl-[4,5′]bipyrimidinyl-6-yl)-5-methyl-oxazolidin-2-one], the pIC50 was 7.68. The result for `C[C@H]1[C@@H](CCO)OC(=O)N1c1cc(-c2cnc(N)nc2C(F)(F)F)nc(N2CCOCC2)n1` [Example 23, (4S,5R)-3-(2′-Amino-2-morpholino-4′-(trifluoromethyl)-[4,5′-bipyrimidin]-6-yl)-5-(2-hydroxyethyl)-4-methyloxazolidin-2-one] reads 8.05; that for `Nc1ncc(-c2cc(N3C[C@@H](CO)OC3=O)nc(N3CCOCC3)n2)c(C(F)(F)F)n1` [Example 14, (S)-3-(2′-Amino-2-morpholin-4-yl-4′-trifluoromethyl-[4,5′]bipyrimidinyl-6-yl)-5-hydroxymethyl-oxazolidin-2-one], 7.77; that for `C[C@H]1C(CC(C)(C)O)OC(=O)N1c1cc(-c2cnc(N)nc2C(F)(F)F)nc(N2CCOCC2)n1` (mixture of isomers) [Example 26, (4S,5R)- and (4S,5S)-3-(2′-amino-2-morpholino-4′-(trifluoromethyl)-[4,5′-bipyrimidin]-6-yl)-5-(2-hydroxy-2-methylpropyl)-4-methyloxazolidin-2-one], 7.92. The result for `C[C@H]1COC(=O)N1c1cc(-c2cnc(N)nc2C(F)(F)F)nc(N2CCOCC2)n1` [Example 1, (S)-3-(2′-Amino-2-morpholin-4-yl-4′-trifluoromethyl-[4,5′]bipyrimidinyl-6-yl)-4-methyl-oxazolidin-2-one] reads 8.15; that for `[2H]C1([2H])OC([2H])([2H])C([2H])([2H])N(c2nc(-c3cnc(N)nc3C(F)(F)F)cc(N3C(=O)OC[C@@H]3C)n2)C1([2H])[2H]` [Example 17, (S)-3-(2′-amino-2-D8-morpholino-4′-(trifluoromethyl)-[4,5′-bipyrimidin]-6-yl)-4-methyloxazolidin-2-one], 8.10. The result for `C[C@@H](O)C[C@H]1OC(=O)N(c2cc(-c3cnc(N)nc3C(F)(F)F)nc(N3CCOCC3)n2)[C@H]1C` (single isomer, unassigned) [Example 24] reads 8.05; that for `Nc1ncc(-c2cc(N3CCOC3=O)nc(N3CCOCC3)n2)c(C(F)(F)F)n1` [Example 11, 3-(2′-Amino-2-morpholin-4-yl-4′-trifluoromethyl-[4,5′]bipyrimidinyl-6-yl)-oxazolidin-2-one, reference compound], 7.54; that for `C[C@H]1COCCN1c1nc(-c2cnc(N)nc2C(F)(F)F)cc(N2C(=O)OC[C@@H]2C)n1` [Example 13, (S)-3-[2′-Amino-2-((S)-3-methyl-morpholin-4-yl)-4′-trifluoromethyl-[4,5′]bipyrimidinyl-6-yl]-4-methyl-oxazolidin-2-one], 7.68.

On to `C[C@H]1[C@H](CO)OC(=O)N1c1cc(-c2cnc(N)nc2C(F)(F)F)nc(N2CCOCC2)n1` [Example 15, (4S,5R)-3-(2′-Amino-2-morpholin-4-yl-4′-trifluoromethyl-[4,5′]bipyrimidinyl-6-yl)-5-hydroxymethyl-4-methyl-oxazolidin-2-one], for which the pIC50 is 7.82.

Turning to `CC1(CO)COC(=O)N1c1cc(-c2cnc(N)nc2C(F)(F)F)nc(N2CCOCC2)n1` (racemic) [Example 3, 3-(2′-amino-2-morpholino-4′-(trifluoromethyl)-4,5′-bipyrimidin-6-yl)-4-(hydroxymethyl)-4-methyloxazolidin-2-one], the pIC50 was 7.92. The result for `CC1(C)OC(=O)N(c2cc(-c3cnc(N)nc3C(F)(F)F)nc(N3CCOCC3)n2)[C@H]1CO` [Example 2, (S)-3-(2′-Amino-2-morpholin-4-yl-4′-trifluoromethyl-[4,5′]bipyrimidinyl-6-yl)-4-hydroxymethyl-5,5-dimethyl-oxazolidin-2-one] reads 7.12; that for `Nc1ncc(-c2cc(N3C(=O)OC[C@@H]3CCO)nc(N3CCOCC3)n2)c(C(F)(F)F)n1` [Example 9, (S)-3-(2′-Amino-2-morpholin-4-yl-4′-trifluoromethyl-[4,5′]bipyrimidinyl-6-yl)-4-(2-hydroxy-ethyl)-oxazolidin-2-one], 7.49; that for `Nc1ncc(-c2cc(N3C(=O)O[C@H]4CCCC[C@@H]43)nc(N3CCOCC3)n2)c(C(F)(F)F)n1` [Example 4, (3aS,7aS)-3-(2′-Amino-2-morpholin-4-yl-4′-trifluoromethyl-[4,5′]bipyrimidinyl-6-yl)-hexahydro-benzooxazol-2-one], 8.40. In the case of `Nc1ncc(-c2cc(N3C(=O)O[C@H]4COC[C@H]43)nc(N3CCOCC3)n2)c(C(F)(F)F)n1` [Example 21, (3aR,6aR)-3-(2′-amino-2-morpholino-4′-(trifluoromethyl)-[4,5′-bipyrimidin]-6-yl)-tetrahydrofuro[3,4-d]oxazol-2(3H)-one], the pIC50 was 7.77. As to `Nc1ncc(-c2cc(N3C(=O)OC4C(O)CCC43)nc(N3CCOCC3)n2)c(C(F)(F)F)n1` (single isomer, unassigned) [Example 22A], the pIC50 is 8.40.

As to `C[C@H]1OC(=O)N(c2cc(-c3cnc(N)nc3C(F)(F)F)nc(N3CCOCC3)n2)[C@H]1CO` [Example 18, (4S,5R)-3-(2′-Amino-2-morpholin-4-yl-4′-trifluoromethyl-[4,5′]bipyrimidinyl-6-yl)-4-hydroxymethyl-5-methyl-oxazolidin-2-one], the pIC50 was 8.10.

`C[C@@H]1OC(=O)N(c2cc(-c3cnc(N)nc3C(F)(F)F)nc(N3CCOCC3)n2)[C@H]1CO` [Example 6]: the pIC50 was 7.96. The result for `Nc1ncc(-c2cc(N3C[C@H](CO)OC3=O)nc(N3CCOCC3)n2)c(C(F)(F)F)n1` [Example 20, (R)-3-(2′-Amino-2-morpholin-4-yl-4′-trifluoromethyl-[4,5′]bipyrimidinyl-6-yl)-5-hydroxymethyl-oxazolidin-2-one] reads 7.64.
